Test results taken from ChEMBL document CHEMBL1143695, “Synthesis and biological studies of novel 2-aminoalkylethers as potential antiarrhythmic agents for the conversion of atrial fibrillation” (J Med Chem, 2007).
Calls of active or inactive are those of the source. The calls are words filed in the database; no cut-off is given here.

Legend:
in vivo = conditions: CD1, mouse, iv
Description: Toxicity in intravenously dosed CD1 mouse

Rattus norvegicus [1] = assay: Antiarrhythmic activity in intravenously dosed Sprague-Dawley rat with ischemia-induced arrhythmia; assay type: functional, Heart
Rattus norvegicus [2] = assay: CNS toxicity in iv dosed Sprague-Dawley rat assessed as cumulative convulsion dose; assay type: organism-based; conditions: in vivo
[3] = target: T1, A-type voltage-gated potassium channel KCND2 (Rattus norvegicus, UniProt Q63881); assay: Inhibition of rat potassium channel Kv4.2 by patch-clamp method
T1 sequence (Q63881 whole entry): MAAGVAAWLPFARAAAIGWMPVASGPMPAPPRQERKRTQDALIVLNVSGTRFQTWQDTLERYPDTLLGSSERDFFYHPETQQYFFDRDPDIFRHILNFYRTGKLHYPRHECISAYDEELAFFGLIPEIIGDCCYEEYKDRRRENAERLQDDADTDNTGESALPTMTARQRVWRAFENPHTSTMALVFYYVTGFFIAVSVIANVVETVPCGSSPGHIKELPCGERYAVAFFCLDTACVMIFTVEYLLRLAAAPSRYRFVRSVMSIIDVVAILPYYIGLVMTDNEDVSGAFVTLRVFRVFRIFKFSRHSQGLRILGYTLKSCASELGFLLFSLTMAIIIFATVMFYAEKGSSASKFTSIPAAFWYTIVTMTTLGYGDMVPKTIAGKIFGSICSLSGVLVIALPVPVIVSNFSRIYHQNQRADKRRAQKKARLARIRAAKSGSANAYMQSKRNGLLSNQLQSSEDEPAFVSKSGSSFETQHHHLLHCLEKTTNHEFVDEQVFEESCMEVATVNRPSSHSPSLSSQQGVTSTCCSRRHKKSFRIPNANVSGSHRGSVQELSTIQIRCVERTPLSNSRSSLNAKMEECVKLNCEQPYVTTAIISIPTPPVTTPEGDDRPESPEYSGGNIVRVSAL

[4] = target: Potassium voltage-gated channel subfamily A member 5 (Homo sapiens, UniProt P22460); assay: Inhibition of human potassium channel Kv1.5 by patch-clamp method
Canis familiaris [5] = species: Canis familiaris; assay: Reduction of blood pressure in Mongrel dog vagal atrial fibrillation model; assay type: functional, organism-based; conditions: Canis lupus familiaris
Canis familiaris [6] = species: Canis familiaris; assay: Reduction of heart rate in Mongrel dog vagal atrial fibrillation model; assay type: functional, organism-based; conditions: Canis lupus familiaris

Sequence of Potassium voltage-gated channel subfamily A member 5 (P22460 whole entry): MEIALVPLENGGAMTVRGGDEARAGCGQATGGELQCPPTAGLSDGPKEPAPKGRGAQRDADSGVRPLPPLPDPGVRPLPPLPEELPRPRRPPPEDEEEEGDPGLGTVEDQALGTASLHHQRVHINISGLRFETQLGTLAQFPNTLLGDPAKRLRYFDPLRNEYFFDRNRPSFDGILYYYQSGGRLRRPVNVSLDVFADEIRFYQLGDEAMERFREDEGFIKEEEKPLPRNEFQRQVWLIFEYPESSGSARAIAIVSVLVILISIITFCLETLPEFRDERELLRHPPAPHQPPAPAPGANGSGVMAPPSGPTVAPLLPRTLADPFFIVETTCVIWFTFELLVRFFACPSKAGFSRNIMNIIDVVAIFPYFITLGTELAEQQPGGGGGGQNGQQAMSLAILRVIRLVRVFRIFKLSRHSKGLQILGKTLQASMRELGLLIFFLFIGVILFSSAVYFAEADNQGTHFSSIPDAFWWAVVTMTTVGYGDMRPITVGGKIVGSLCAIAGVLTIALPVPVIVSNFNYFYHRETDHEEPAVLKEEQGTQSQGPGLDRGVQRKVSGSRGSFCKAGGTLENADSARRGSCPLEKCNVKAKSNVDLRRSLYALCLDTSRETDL

| SMILES | ED50 (Rattus norvegicus [1]) [µmol/kg/min] | Activity (Rattus norvegicus [2]) [µmol/kg] | other results |
| --- | --- | --- | --- |
| Brc1ccccc1CCO[C@@H]1CCCC[C@H]1N1CCOCC1 | 1 | 125 | LD50 (in vivo): 86 µmol/kg |
| COc1ccc(CCO[C@@H]2CCCC[C@H]2N2CCNCC2)cc1OC | 1.6 | 392 | – |
| OC1CCN([C@@H]2CCCC[C@H]2OCCc2cccc3ccccc23)C1 (mixture of isomers) | 0.8 | 67 | – |
| FC(F)(F)c1ccccc1CCO[C@@H]1CCCC[C@H]1N1CCOCC1 | 0.8 | 134 | – |
| c1ccc2c(CCO[C@@H]3CCCC[C@H]3N3CCC4(C3)OCCO4)cccc2c1 | – | 41 | – |
| OC1CCN([C@@H]2CCCC[C@@H]2OCCc2cccc3ccccc23)C1 (mixture of isomers) | 0.4 | 70 | – |
| Brc1ccc(OCCO[C@@H]2CCCC[C@H]2N2CCOCC2)cc1 | 2.5 | 83 | – |
| Brc1cccc(CCO[C@@H]2CCCC[C@H]2N2CCOCC2)c1 | 1.9 | 131 | – |
| O=C1CCN([C@@H]2CCCC[C@@H]2OCCc2cccc3ccccc23)C1 | 1.6 | 145 | – |
| C=C[C@H]1CN2CC[C@H]1C[C@@H]2[C@@H](O)c1ccnc2ccc(OC)cc12 [QUINIDINE] | 4 | 317 | – |
| O=C1CCN([C@@H]2CCCC[C@H]2OCCc2csc3ccccc23)C1 | – | 203 | – |
| CCN(CC)CC(=O)Nc1c(C)cccc1C [LIDOCAINE] | 4.5 | 190 | IC50 [3]: 1210 µM; IC50 [4]: 2190 µM |
| Clc1cccc(Cl)c1CCO[C@@H]1CCCC[C@H]1N1CCSC1 | 6.5 | 331 | – |
| CC(=O)N1CCN([C@@H]2CCCC[C@H]2OCCc2ccc3ccccc3c2)CC1 | – | 67 | – |
| OC1CCN([C@@H]2CCCC[C@H]2OCCc2ccccc2Br)C1 (mixture of isomers) | 0.4 | 67 | – |
| c1ccc2c(CCO[C@@H]3CCCC[C@H]3N3CCOCC3)csc2c1 | 0.8 | 65 | LD50 (in vivo): 52 µmol/kg |
| COc1ccc(CCO[C@@H]2CCCC[C@H]2N2CCOCC2)cc1OC | 1.5 | 113 | LD50 (in vivo): 97 µmol/kg |
| O=C1CCN([C@@H]2CCCC[C@H]2OCCc2cccc3ccccc23)CC1 | 0.9 | 75 | – |
| COc1ccc(CCCO[C@@H]2CCCC[C@H]2N2CCOCC2)cc1OC | 1.5 | 109 | LD50 (in vivo): 112 µmol/kg |
| O=C1CCN([C@@H]2CCCC[C@H]2OCCc2cccc3ccccc23)C1 (stereo in doubt; 26) | – | – | Activity (Canis familiaris [5]): inactive; Activity (Canis familiaris [6]): inactive |
| O=C1CCN([C@@H]2CCCC[C@H]2OCC(c2ccccc2)c2ccccc2)C1 | 2.5 | 155 | – |
| Clc1cccc(Cl)c1CCO[C@@H]1CCCC[C@H]1N1CCOCC1 | 1.2 | 86 | LD50 (in vivo): 76 µmol/kg |
| O=C1CCN([C@@H]2CCCC[C@H]2OCCCC2CCCCC2)C1 | – | 300 | – |
